Measurements: patent publication US20240190880A1 (THE REGENTS OF THE UNIVERSITY OF MICHIGAN, priority 2021, published 2024)

Target: T1, ER (Homo sapiens, UniProt P03372)
T1 construct: host or cells: T47D and MCF7 human breast cancer cells
T1 sequence (P03372 1-595): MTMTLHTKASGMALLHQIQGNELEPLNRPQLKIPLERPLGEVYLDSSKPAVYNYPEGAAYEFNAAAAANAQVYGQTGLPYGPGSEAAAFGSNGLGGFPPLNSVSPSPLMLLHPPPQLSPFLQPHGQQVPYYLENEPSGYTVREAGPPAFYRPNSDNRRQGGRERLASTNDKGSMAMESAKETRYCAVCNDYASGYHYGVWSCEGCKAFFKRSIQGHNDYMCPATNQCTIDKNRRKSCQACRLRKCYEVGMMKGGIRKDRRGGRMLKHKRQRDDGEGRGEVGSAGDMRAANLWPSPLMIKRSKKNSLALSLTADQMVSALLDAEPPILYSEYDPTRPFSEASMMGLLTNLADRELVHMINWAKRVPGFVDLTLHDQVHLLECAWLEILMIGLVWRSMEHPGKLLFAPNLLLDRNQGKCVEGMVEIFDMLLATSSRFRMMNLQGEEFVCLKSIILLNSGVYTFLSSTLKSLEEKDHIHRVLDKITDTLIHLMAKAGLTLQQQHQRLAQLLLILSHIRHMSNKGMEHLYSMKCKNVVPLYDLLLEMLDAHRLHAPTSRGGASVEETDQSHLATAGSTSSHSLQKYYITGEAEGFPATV
Test: ER degradation activity, in-cell western blot analysis in T47D cells
Assay type: cell-based
Conditions: 16 hours, Table A does not say which cell line (T47D or MCF7), read-out: Potency (DC50)
Procedure, shortened: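 T47D cells cultured in DMEM with 10% FBS, treated with compounds (final 0.5% DMSO) for 16 h. ER level measured by in-cell western with anti-rabbit-680/anti-mouse-800 near-infrared detection. Relative ER percentage calculated against untreated and DMSO-treated wells set as 100%.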

| SMILES | DC50 |
| --- | --- |
| C[C@@H]1Cc2c([nH]c3ccccc23)[C@@H](c2cnc(C3=CCC(C(=O)N4CCC(N5Cc6cc7c(cc6C5)C(=O)N(C5CCC(=O)NC5=O)C7=O)CC4)CC3)nc2)N1CC(F)F (stereo partly drawn) [E 315, 6-(1-(4-(5-((1R,3R)-2-(2,2-difluoroethyl)-3-methyl-2,3,4,9-tetrahydro-1H-pyrido[3,4-b]indol-1-yl)pyrimidin-2-yl)cyclohex-3-ene-1-carbonyl)piperidin-4-yl)-2-(2,6-dioxopiperidin-3-yl)-6,7-dihydropyrrolo[3,4-f]isoindole-1,3(2H,5H)-dione] | > 0.1 µM |
| C[C@@H]1Cc2c([nH]c3ccccc23)[C@@H](c2ccc(C3=CCC(C(=O)N4CCC(N5Cc6cc7c(cc6C5)C(=O)N(C5CCC(=O)NC5=O)C7=O)CC4)CC3)cc2)N1CC(F)F (stereo partly drawn) [E 316, 6-(1-(4′-((1R,3R)-2-(2,2-difluoroethyl)-3-methyl-2,3,4,9-tetrahydro-1H-pyrido[3,4-b]indol-1-yl)-2,3,4,5-tetrahydro-[1,1′-biphenyl]-4-carbonyl)piperidin-4-yl)-2-(2,6-dioxopiperidin-3-yl)-6,7-dihydropyrrolo[3,4-f]isoindole-1,3(2H,5H)-dione] | > 0.1 µM |
| C[C@@H]1Cc2cc(O)ccc2[C@@H](c2ccc(C3CCC(C(=O)N4CCC(N5Cc6cc7c(cc6C5)C(=O)N(C5CCC(=O)NC5=O)C7=O)CC4)CC3)cc2F)N1CC(F)F (stereo partly drawn) [E 317, 6-(1-(4-(4-((1S,3R)-2-(2,2-difluoroethyl)-6-hydroxy-3-methyl-1,2,3,4-tetrahydroisoquinolin-1-yl)-3-fluorophenyl)cyclohexane-1-carbonyl)piperidin-4-yl)-2-(2,6-dioxopiperidin-3-yl)-6,7-dihydropyrrolo[3,4-f]isoindole-1,3(2H,5H)-dione] | 0.01 to 0.1 µM |
| C[C@@H]1Cc2cc(O)ccc2[C@@H](c2ccc(N3CCC(C(=O)N4CCC(N5Cc6cc7c(cc6C5)C(=O)N(C5CCC(=O)NC5=O)C7=O)CC4)CC3)cc2)N1CC(F)F (stereo partly drawn) [E 318, 6-(1-(1-(4-((1R,3R)-2-(2,2-difluoroethyl)-6-hydroxy-3-methyl-1,2,3,4-tetrahydroisoquinolin-1-yl)phenyl)piperidine-4-carbonyl)piperidin-4-yl)-2-(2,6-dioxopiperidin-3-yl)-6,7-dihydropyrrolo[3,4-f]isoindole-1,3(2H,5H)-dione] | < 0.01 µM |
| C[C@@H]1Cc2c([nH]c3ccccc23)[C@@H](c2ccc(C3CCC(C(=O)N4CCC(N5Cc6cc7c(cc6C5)C(=O)N(C5CCC(=O)NC5=O)C7=O)CC4)CC3)nc2)N1CC(F)F (stereo partly drawn) [E 319, 6-(1-(4-(5-((1R,3R)-2-(2,2-difluoroethyl)-3-methyl-2,3,4,9-tetrahydro-1H-pyrido[3,4-b]indol-1-yl)pyridin-2-yl)cyclohexane-1-carbonyl)piperidin-4-yl)-2-(2,6-dioxopiperidin-3-yl)-6,7-dihydropyrrolo[3,4-f]isoindole-1,3(2H,5H)-dione] | > 0.1 µM |
| C[C@@H]1Cc2cc(O)ccc2[C@@H](c2c(F)cc(N3CCC4(CCN(C(=O)CN5Cc6cc7c(cc6C5)C(=O)N(C5CCC(=O)NC5=O)C7=O)CC4)CC3)cc2F)N1CC(F)F (stereo partly drawn) [E 320, 6-(2-(9-(4-((1S,3R)-2-(2,2-difluoroethyl)-6-hydroxy-3-methyl-1,2,3,4-tetrahydroisoquinolin-1-yl)-3,5-difluorophenyl)-3,9-diazaspiro[5.5]undecan-3-yl)-2-oxoethyl)-2-(2,6-dioxopiperidin-3-yl)-6,7-dihydropyrrolo[3,4-f]isoindole-1,3(2H,5H)-dione] | < 0.01 µM |
| C[C@@H]1Cc2cc(O)ccc2C(c2ccc(N3CCC(C(=O)N4CCC(N5Cc6cc7c(cc6C5)C(=O)N(C5CCC(=O)NC5=O)C7=O)CC4)CC3)cc2)N1CC(F)F (stereo partly drawn) [E 321, 6-(1-(1-(4-((3R)-2-(2,2-difluoroethyl)-6-hydroxy-3-methyl-1,2,3,4-tetrahydroisoquinolin-1-yl)phenyl)piperidine-4-carbonyl)piperidin-4-yl)-2-(2,6-dioxopiperidin-3-yl)-6,7-dihydropyrrolo[3,4-f]isoindole-1,3(2H,5H)-dione] | < 0.01 µM |
| C[C@@H]1Cc2cc(O)ccc2C(c2ccc(N3CCC(C(=O)N4CCC(N5Cc6cc7c(cc6C5)C(=O)N(C5CCC(=O)NC5=O)C7=O)CC4)CC3)cn2)N1CC(F)F (stereo partly drawn) [E 322, 6-(1-(1-(6-((3R)-2-(2,2-difluoroethyl)-6-hydroxy-3-methyl-1,2,3,4-tetrahydroisoquinolin-1-yl)pyridin-3-yl)piperidine-4-carbonyl)piperidin-4-yl)-2-(2,6-dioxopiperidin-3-yl)-6,7-dihydropyrrolo[3,4-f]isoindole-1,3(2H,5H)-dione] | > 0.1 µM |
| C[C@@H]1Cc2cc(O)ccc2[C@@H](c2ccc(N3CCC(C(=O)N4CCC(N5Cc6cc7c(cc6C5)C(=O)N(C5CCC(=O)NC5=O)C7=O)CC4)CC3)cc2F)N1CC(F)F (stereo partly drawn) [E 323, 6-(1-(1-(4-((1S,3R)-2-(2,2-difluoroethyl)-6-hydroxy-3-methyl-1,2,3,4-tetrahydroisoquinolin-1-yl)-3-fluorophenyl)piperidine-4-carbonyl)piperidin-4-yl)-2-(2,6-dioxopiperidin-3-yl)-6,7-dihydropyrrolo[3,4-f]isoindole-1,3(2H,5H)-dione] | < 0.01 µM |
| CN(C1CCC(N2Cc3cc4c(cc3C2)C(=O)N(C2CCC(=O)NC2=O)C4=O)CC1)C1CCN(c2ccc([C@@H]3c4ccc(O)cc4CC[C@@H]3c3ccccc3)cc2)CC1 (stereo partly drawn) [E 324, 2-(2,6-dioxopiperidin-3-yl)-6-(4-((1-(4-((1R,2S)-6-hydroxy-2-phenyl-1,2,3,4-tetrahydronaphthalen-1-yl)phenyl)piperidin-4-yl)(methyl)amino)cyclohexyl)-6,7-dihydropyrrolo[3,4-f]isoindole-1,3(2H,5H)-dione] | > 0.1 µM |
| C[C@@H]1Cc2c([nH]c3ccccc23)[C@@H](c2c(F)cc(-c3ccc(C(=O)N4CCC(N5Cc6cc7c(cc6C5)C(=O)N(C5CCC(=O)NC5=O)C7=O)CC4)nc3)cc2F)N1CC(F)F (stereo partly drawn) [E 325, 6-(1-(5-(4-((1R,3R)-2-(2,2-difluoroethyl)-3-methyl-2,3,4,9-tetrahydro-1H-pyrido[3,4-b]indol-1-yl)-3,5-difluorophenyl)picolinoyl)piperidin-4-yl)-2-(2,6-dioxopiperidin-3-yl)-6,7-dihydropyrrolo[3,4-f]isoindole-1,3(2H,5H)-dione] | 0.01 to 0.1 µM |
| O=C1CCC(N2C(=O)c3cc4c(cc3C2=O)CN([C@H]2CC[C@H](NC3CCN(c5ccc([C@@H]6c7ccc(O)cc7CC[C@@H]6c6ccccc6)cc5)CC3)CC2)C4)C(=O)N1 (stereo partly drawn) [E 335, 2-(2,6-dioxopiperidin-3-yl)-6-((1R,4r)-4-((1-(4-((1R,2S)-6-hydroxy-2-phenyl-1,2,3,4-tetrahydronaphthalen-1-yl)phenyl)piperidin-4-yl)amino)cyclohexyl)-6,7-dihydropyrrolo[3,4-f]isoindole-1,3(2H,5H)-dione] | > 0.1 µM |
| O=C1CCC(N2C(=O)c3cc4c(cc3C2=O)CN(C2CCC(C(=O)NC3CN(c5ccc([C@@H]6c7ccc(O)cc7CC[C@@H]6c6ccccc6)cc5)C3)CC2)C4)C(=O)N1 (some centres unmarked) [E 336] | > 0.1 µM |
| O=C1CCC(N2C(=O)c3cc4c(cc3C2=O)CN(CC2CCC(NC3CN(c5ccc([C@@H]6c7ccc(O)cc7CC[C@@H]6c6ccccc6)cc5)C3)CC2)C4)C(=O)N1 (stereo partly drawn) [E 337, 2-(2,6-dioxopiperidin-3-yl)-6-((4-((1-(4-((1R,2S)-6-hydroxy-2-phenyl-1,2,3,4-tetrahydronaphthalen-1-yl)phenyl)azetidin-3-yl)amino)cyclohexyl)methyl)-6,7-dihydropyrrolo[3,4-f]isoindole-1,3(2H,5H)-dione] | > 0.1 µM |
| O=C1CCC(N2C(=O)c3cc4c(cc3C2=O)CN(C2CCC(CNC3CN(c5ccc([C@@H]6c7ccc(O)cc7CC[C@@H]6c6ccccc6)cc5)C3)CC2)C4)C(=O)N1 (stereo partly drawn) [E 338, 2-(2,6-dioxopiperidin-3-yl)-6-(4-(((1-(4-((1R,2S)-6-hydroxy-2-phenyl-1,2,3,4-tetrahydronaphthalen-1-yl)phenyl)azetidin-3-yl)amino)methyl)cyclohexyl)-6,7-dihydropyrrolo[3,4-f]isoindole-1,3(2H,5H)-dione] | > 0.1 µM |
| O=C1CCC(N2C(=O)c3cc4c(cc3C2=O)CN(C2CCC(NCC3CN(c5ccc([C@@H]6c7ccc(O)cc7CC[C@@H]6c6ccccc6)cc5)C3)CC2)C4)C(=O)N1 (stereo partly drawn) [E 339, 2-(2,6-dioxopiperidin-3-yl)-6-(4-(((1-(4-((1R,2S)-6-hydroxy-2-phenyl-1,2,3,4-tetrahydronaphthalen-1-yl)phenyl)azetidin-3-yl)methyl)amino)cyclohexyl)-6,7-dihydropyrrolo[3,4-f]isoindole-1,3(2H,5H)-dione] | > 0.1 µM |
| O=C1CCC(N2C(=O)c3cc4c(cc3C2=O)CN([C@H]2CC[C@@H](NC3CN(c5ccc([C@@H]6c7ccc(O)cc7CC[C@@H]6c6ccccc6)cc5)C3)CC2)C4)C(=O)N1 (stereo partly drawn) [E 340, 2-(2,6-dioxopiperidin-3-yl)-6-((1S,4s)-4-((1-(4-((1R,2S)-6-hydroxy-2-phenyl-1,2,3,4-tetrahydronaphthalen-1-yl)phenyl)azetidin-3-yl)amino)cyclohexyl)-6,7-dihydropyrrolo[3,4-f]isoindole-1,3(2H,5H)-dione] | > 0.1 µM |
